Measurements: ChEMBL document CHEMBL1629515, “Synthesis and biological evaluation of oleanolic acid derivatives as inhibitors of protein tyrosine phosphatase 1B” (J Nat Prod, 2010)

Target: T1, Tyrosine-protein phosphatase non-receptor type 1 (Homo sapiens, UniProt P18031)
T1 sequence (P18031 whole entry): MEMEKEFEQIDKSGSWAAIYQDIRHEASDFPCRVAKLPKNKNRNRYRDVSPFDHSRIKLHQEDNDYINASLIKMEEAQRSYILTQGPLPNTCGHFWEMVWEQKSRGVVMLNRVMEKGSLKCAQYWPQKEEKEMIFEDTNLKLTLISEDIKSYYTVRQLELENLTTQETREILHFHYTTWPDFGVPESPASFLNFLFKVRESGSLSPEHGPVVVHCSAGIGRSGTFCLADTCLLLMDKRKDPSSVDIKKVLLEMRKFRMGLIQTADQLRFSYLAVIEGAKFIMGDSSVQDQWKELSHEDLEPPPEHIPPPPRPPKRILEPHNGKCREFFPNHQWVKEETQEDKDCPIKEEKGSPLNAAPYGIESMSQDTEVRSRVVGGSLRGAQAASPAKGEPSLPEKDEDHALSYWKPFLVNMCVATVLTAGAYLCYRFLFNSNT
Assay: Inhibition of recombinant PTP1B expressed in Escherichia coli BL21 after 30 mins by spectrophotometry

Row | IC50 | Compound
1 | 4.11 µM | CC1(C)CC[C@]2(COC(=O)CC(=O)O)CC[C@]3(C)C(=CC[C@@H]4[C@@]5(C)CCC(=O)C(C)(C)[C@@H]5CC[C@]43C)[C@@H]2C1
2 | 4.61 µM | CC1(C)CC[C@]2(COC(=O)CCC(=O)O)CC[C@]3(C)C(=CC[C@@H]4[C@@]5(C)CCC(=O)C(C)(C)[C@@H]5CC[C@]43C)[C@@H]2C1
3 | 6.39 µM | CC1(C)CC[C@]2(COC(=O)CCCC(=O)O)CC[C@]3(C)C(=CC[C@@H]4[C@@]5(C)CCC(=O)C(C)(C)[C@@H]5CC[C@]43C)[C@@H]2C1
4 | 3.12 µM | CC1(C)CC[C@]2(COC(=O)c3ccccc3C(=O)O)CC[C@]3(C)C(=CC[C@@H]4[C@@]5(C)CCC(=O)C(C)(C)[C@@H]5CC[C@]43C)[C@@H]2C1
